# Test results taken from ChEMBL document CHEMBL5724696, “Autophagy assay results for EUbOPEN Chemogenomics Library” (2024).
# Tests used:
# Assay type in all cases: functional, Homo sapiens
# U2OS [1] = experiment: (§1) Here: values are normalized to the negative (DMSO; defined as 0% autophagy induction) and positive (250nM Torin1; mTOR inhibitor; defined as maximal inducer of autophagy = 100%) control compounds and represented as % of autophagy induction. […] The impact of autophagy induction on cells is complex and depends on the affected target. As such, the magnitude of a phenotype may not be equally mirrored in the %-value of autophagy induction and vice versa. The dynamics of the induction may indicate the mode of activation: e.g. activation via phosphorylation or a signaling cascade may occur fast, while activation via transcription factors may take considerably longer. […] Of note, treatment concentrations may be sub-optimal for specific compounds, leading to false negative annotations.; conditions: Culturing Media DMEM, 1 % Penicillin/Streptomycin, 10% Fetal bovin serum Add-On: No, Screening Media Control DMEM, Screening Media Samples DMEM
# TERT-RPE1 = experiment: as §1; conditions: Culturing Media DMEM/F12 (1:1), 1 % Penicillin/Streptomycin, 10% Fetal bovin serum Add-On: No, Screening Media Control DMEM/F12 (1:1), Screening Media Samples DMEM/F12 (1:1)
# U2OS [2] = experiment: as §1; conditions: Culturing Media DMEM, 1 % Penicillin/Streptomycin, 10% Fetal bovin serum Add-On: No, Screening Media Control DMEM, Screening Media Samples DMEM; remark: listed apart in the source
# [3] = Compound Concentration 0.5 uM, Timepoint 12 hours
# [4] = Compound Concentration 0.5 uM, Timepoint 24 hours
# [5] = Compound Concentration 0.5 uM, Timepoint 36 hours
# [6] = Compound Concentration 0.5 uM, Timepoint 60 hours
# [7] = Compound Concentration 2 uM, Timepoint 12 hours
# [8] = Compound Concentration 2 uM, Timepoint 24 hours
# [9] = Compound Concentration 2 uM, Timepoint 36 hours
# [10] = Compound Concentration 2 uM, Timepoint 60 hours
# [11] = Compound Concentration 10 uM, Timepoint 12 hours
# [12] = Compound Concentration 10 uM, Timepoint 24 hours
# [13] = Compound Concentration 10 uM, Timepoint 36 hours
# [14] = Compound Concentration 10 uM, Timepoint 60 hours
smiles,measurement,setting,value
N#Cc1c[nH]c2c(C(=O)N3CCN(CCc4ccc(F)cc4)CC3)cccc12 [PRUVANSERIN],autophagy induction,U2OS [1]; [3],-6.178%
same,autophagy induction,U2OS [1]; [4],-8.725%
same,autophagy induction,U2OS [1]; [5],-11.774%
same,autophagy induction,U2OS [1]; [6],-11.1897%
same,autophagy induction,U2OS [1]; [7],-0.7991%
same,autophagy induction,U2OS [1]; [8],-1.585%
same,autophagy induction,U2OS [1]; [9],-5.754%
same,autophagy induction,U2OS [1]; [10],-9.463%
same,autophagy induction,U2OS [1]; [11],-2.951%
same,autophagy induction,U2OS [1]; [12],1.579%
same,autophagy induction,U2OS [1]; [13],-6.9473%
same,autophagy induction,U2OS [1]; [14],-6.12%
same,autophagy induction,TERT-RPE1; [3],-0.9197%
same,autophagy induction,TERT-RPE1; [4],-7.874%
same,autophagy induction,TERT-RPE1; [5],-10.0141%
same,autophagy induction,TERT-RPE1; [6],-14.8375%
same,autophagy induction,TERT-RPE1; [7],-6.1985%
same,autophagy induction,TERT-RPE1; [8],-7.924%
same,autophagy induction,TERT-RPE1; [9],-9.7251%
same,autophagy induction,TERT-RPE1; [10],-15.807%
same,autophagy induction,TERT-RPE1; [11],-0.3174%
same,autophagy induction,TERT-RPE1; [12],-4.163%
same,autophagy induction,TERT-RPE1; [13],-3.571%
same,autophagy induction,TERT-RPE1; [14],-3.5258%
same,autophagy induction,U2OS [2]; [3],-2.928%
same,autophagy induction,U2OS [2]; [4],-3.235%
same,autophagy induction,U2OS [2]; [5],-1.344%
same,autophagy induction,U2OS [2]; [6],-1.7078%
same,autophagy induction,U2OS [2]; [7],-0.5957%
same,autophagy induction,U2OS [2]; [8],-2.183%
same,autophagy induction,U2OS [2]; [9],-3.588%
same,autophagy induction,U2OS [2]; [10],-2.524%
same,autophagy induction,U2OS [2]; [11],4.878%
same,autophagy induction,U2OS [2]; [12],-0.06233%
same,autophagy induction,U2OS [2]; [13],-0.9102%
same,autophagy induction,U2OS [2]; [14],-2.945%
